From the supplement of paper PMC4862054

Legend:
Conditions in all cases: incubation time: 72 h
DU-4475 [1] = test: normalised viability (% of control), CellTiter-Blue; higher = more viable cells (about 100 = DMSO control)
Procedure, shortened: (§1)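 Breast cancer cell lines in 20 µl suspension were seeded onto 384-well plates pre-loaded with compound dissolved in 5 µl medium, then incubated 72 h. CellTiter-Blue reagent (2.5 µl) was added for 2 h at 37 °C and fluorescence read at 560/590 nm. Each plate was normalised to vehicle (100) and a positive kill control (0), with Z'-factor quality control. The value is normalised viability at one listed concentration of the series.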

MDA-MB-453 [2] = test: as above
Procedure, shortened: as §1

CAL-120 [3] = test: as above
Procedure, shortened: as §1

HCC1143 [4] = test: drug sensitivity score (DSS), CellTox Green (DSS (AUC-based score)); higher = stronger drug effect (viability inhibition or cytotoxicity); extreme values may be limits of the assay
Procedure, shortened: (§2)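 Normalisation on every plate relied on 0.1 % DMSO and a positive kill control. The plates, 384-well format, held compound at 5 concentrations 10-fold apart across a compound-specific 10,000-fold range, and breast cancer cell lines in 20 µl suspension were incubated on them for 72 h before CellTox Green and then CellTiter-Glo readings. The drug sensitivity score derives from the area under the fitted dose-response curve.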

CAL-51 [5] = test: as above
Procedure, shortened: as §2

MDA-MB-453 [6] = test: as above
Procedure, shortened: as §2

HCC1143 [7] = test: normalised viability (% of control), CellTiter-Blue; higher = more viable cells (about 100 = DMSO control)
Procedure, shortened: as §1

CAL-51 [8] = test: as above
Procedure, shortened: as §1

HCC1937 = test: as above
Procedure, shortened: as §1

MDA-MB-436 = test: as above
Procedure, shortened: as §1

MDA-MB-231 = test: as above
Procedure, shortened: as §1

DU-4475 [9] = test: as above; remark: listed apart in the source
Procedure, shortened: as §1

BT-549 = test: as above
Procedure, shortened: as §1

Hs578T = test: as above
Procedure, shortened: as §1

SK-BR-3 = test: as above
Procedure, shortened: as §1

CAL-85-1 = test: as above
Procedure, shortened: as §1

MDA-MB-453 [10] = test: as above; remark: listed apart in the source
Procedure, shortened: as §1

BT-474 = test: as above
Procedure, shortened: as §1

HCC1599 = test: as above
Procedure, shortened: as §1

HDQ-P1 = test: as above
Procedure, shortened: as §1

MFM-223 = test: as above
Procedure, shortened: as §1

CAL-120 [11] = test: as above; remark: listed apart in the source
Procedure, shortened: as §1

MDA-MB-468 = test: as above
Procedure, shortened: as §1

CAL-148 = test: as above
Procedure, shortened: as §1

COc1ccc(-c2cc3c(C)nc(N)nc3n([C@H]3CC[C@H](OCCO)CC3)c2=O)cn1
normalised viability (DU-4475 [1]; 10 nM): 103%
normalised viability (MDA-MB-453 [2]; 10 nM): 86.2%
normalised viability (CAL-120 [3]; 100 nM): 74.9%
drug sensitivity score (HCC1143 [4]): 0
drug sensitivity score (CAL-51 [5]): 12.5
drug sensitivity score (MDA-MB-453 [6]): 0
normalised viability (HCC1143 [7]; 10 nM): 111%
normalised viability (HCC1143 [7]; 1000 nM): 30.4%
normalised viability (HCC1143 [7]; 10000 nM): 15%
normalised viability (CAL-51 [8]; 3 nM): 99.7%
normalised viability (CAL-51 [8]; 30 nM): 89.1%
normalised viability (CAL-51 [8]; 100 nM): 59%
normalised viability (HCC1937; 10 nM): 68.4%
normalised viability (HCC1937; 1000 nM): 28%
normalised viability (HCC1937; 10000 nM): 30.2%
normalised viability (MDA-MB-436; 10 nM): 103%
normalised viability (MDA-MB-436; 1000 nM): 15.8%
normalised viability (MDA-MB-436; 10000 nM): 7.22%
normalised viability (MDA-MB-231; 10 nM): 84.7%
normalised viability (MDA-MB-231; 1000 nM): 16.7%
normalised viability (MDA-MB-231; 10000 nM): 8.35%
normalised viability (DU-4475 [9]; 3 nM): 109%
normalised viability (DU-4475 [9]; 30 nM): 96.7%
normalised viability (DU-4475 [9]; 100 nM): 89%
normalised viability (BT-549; 10 nM): 86.3%
normalised viability (BT-549; 1000 nM): 19.1%
normalised viability (BT-549; 10000 nM): 6.84%
normalised viability (Hs578T; 10 nM): 96.1%
normalised viability (Hs578T; 1000 nM): 17.9%
normalised viability (Hs578T; 10000 nM): 3.2%
normalised viability (SK-BR-3; 10 nM): 82.6%
normalised viability (SK-BR-3; 1000 nM): 10.6%
normalised viability (SK-BR-3; 10000 nM): 6.34%
normalised viability (CAL-85-1; 3 nM): 102%
normalised viability (CAL-85-1; 30 nM): 89.7%
normalised viability (CAL-85-1; 100 nM): 84.5%
normalised viability (MDA-MB-453 [10]; 3 nM): 103%
normalised viability (MDA-MB-453 [10]; 30 nM): 66.5%
normalised viability (MDA-MB-453 [10]; 100 nM): 48.5%
normalised viability (BT-474; 10 nM): 91.8%
normalised viability (BT-474; 1000 nM): 14.1%
normalised viability (BT-474; 10000 nM): 0.59%
normalised viability (HCC1599; 10 nM): 115%
normalised viability (HCC1599; 1000 nM): 35.1%
normalised viability (HCC1599; 10000 nM): 28.2%
normalised viability (HDQ-P1; 3 nM): 76.7%
normalised viability (HDQ-P1; 30 nM): 81.6%
normalised viability (HDQ-P1; 100 nM): 39%
normalised viability (MFM-223; 10 nM): 92%
normalised viability (MFM-223; 1000 nM): 16%
normalised viability (MFM-223; 10000 nM): 7.1%
normalised viability (CAL-120 [11]; 10 nM): 107%
normalised viability (CAL-120 [11]; 1000 nM): 21%
normalised viability (CAL-120 [11]; 10000 nM): 11.3%
normalised viability (MDA-MB-468; 10 nM): 92.7%
normalised viability (MDA-MB-468; 1000 nM): 21.5%
normalised viability (MDA-MB-468; 10000 nM): 6.53%
normalised viability (CAL-148; 3 nM): 87.6%
normalised viability (CAL-148; 30 nM): 93%
normalised viability (CAL-148; 100 nM): 78.6%

Nc1nc(=O)c2c([nH]1)NCC(CNc1ccc(C(=O)N[C@@H](CCC(=O)O)C(=O)O)cc1)N2C=O (mixture of isomers) [Folinic acid]
normalised viability (DU-4475 [1]; 0.99 nM): 105%
normalised viability (MDA-MB-453 [2]; 0.99 nM): 104%
normalised viability (CAL-120 [3]; 9.9 nM): 111%
normalised viability (HCC1143 [7]; 0.99 nM): 92.7%
normalised viability (HCC1143 [7]; 99 nM): 95.8%
normalised viability (HCC1143 [7]; 990 nM): 92%
normalised viability (CAL-51 [8]; 0.297 nM): 94%
normalised viability (CAL-51 [8]; 2.97 nM): 92%
normalised viability (CAL-51 [8]; 9.9 nM): 97.6%
normalised viability (HCC1937; 0.99 nM): 121%
normalised viability (HCC1937; 99 nM): 87.8%
normalised viability (HCC1937; 990 nM): 107%
normalised viability (MDA-MB-436; 0.99 nM): 123%
normalised viability (MDA-MB-436; 99 nM): 112%
normalised viability (MDA-MB-436; 990 nM): 123%
normalised viability (MDA-MB-231; 0.99 nM): 100%
normalised viability (MDA-MB-231; 99 nM): 123%
normalised viability (MDA-MB-231; 990 nM): 118%
normalised viability (DU-4475 [9]; 0.297 nM): 110%
normalised viability (DU-4475 [9]; 2.97 nM): 85%
normalised viability (DU-4475 [9]; 9.9 nM): 109%
normalised viability (BT-549; 0.99 nM): 100%
normalised viability (BT-549; 99 nM): 105%
normalised viability (BT-549; 990 nM): 102%
normalised viability (Hs578T; 0.99 nM): 92.2%
normalised viability (Hs578T; 99 nM): 102%
normalised viability (Hs578T; 990 nM): 96.3%
normalised viability (SK-BR-3; 0.99 nM): 95.3%
normalised viability (SK-BR-3; 99 nM): 98.6%
normalised viability (SK-BR-3; 990 nM): 116%
normalised viability (CAL-85-1; 0.297 nM): 96.2%
normalised viability (CAL-85-1; 2.97 nM): 93.9%
normalised viability (CAL-85-1; 9.9 nM): 99.8%
normalised viability (MDA-MB-453 [10]; 0.297 nM): 110%
normalised viability (MDA-MB-453 [10]; 2.97 nM): 109%
normalised viability (MDA-MB-453 [10]; 9.9 nM): 103%
normalised viability (BT-474; 0.99 nM): 106%
normalised viability (BT-474; 99 nM): 99.6%
normalised viability (BT-474; 990 nM): 116%
normalised viability (HCC1599; 0.99 nM): 111%
normalised viability (HCC1599; 99 nM): 106%
normalised viability (HCC1599; 990 nM): 118%
normalised viability (HDQ-P1; 0.297 nM): 122%
normalised viability (HDQ-P1; 2.97 nM): 115%
normalised viability (HDQ-P1; 9.9 nM): 92.2%
normalised viability (MFM-223; 0.99 nM): 106%
normalised viability (MFM-223; 99 nM): 107%
normalised viability (MFM-223; 990 nM): 94.4%
normalised viability (CAL-120 [11]; 0.99 nM): 105%
normalised viability (CAL-120 [11]; 99 nM): 110%
normalised viability (CAL-120 [11]; 990 nM): 108%
normalised viability (MDA-MB-468; 0.99 nM): 115%
normalised viability (MDA-MB-468; 99 nM): 107%
normalised viability (MDA-MB-468; 990 nM): 115%
normalised viability (CAL-148; 0.297 nM): 92.2%
normalised viability (CAL-148; 2.97 nM): 88.9%
normalised viability (CAL-148; 9.9 nM): 96.6%

O=C(Nc1c[nH]nc1-c1nc2ccc(CN3CCOCC3)cc2[nH]1)NC1CC1 [AT9283]
normalised viability (DU-4475 [1]; 10 nM): 97.5%
normalised viability (MDA-MB-453 [2]; 10 nM): 82.5%
normalised viability (CAL-120 [3]; 100 nM): 57.3%
drug sensitivity score (HCC1143 [4]): 0
drug sensitivity score (CAL-51 [5]): 14
drug sensitivity score (MDA-MB-453 [6]): 0
normalised viability (HCC1143 [7]; 10 nM): 77.8%
normalised viability (HCC1143 [7]; 1000 nM): 51.8%
normalised viability (HCC1143 [7]; 10000 nM): 13.9%
normalised viability (CAL-51 [8]; 3 nM): 107%
normalised viability (CAL-51 [8]; 30 nM): 97.8%
normalised viability (CAL-51 [8]; 100 nM): 56.3%
normalised viability (HCC1937; 10 nM): 106%
normalised viability (HCC1937; 1000 nM): 43.4%
normalised viability (HCC1937; 10000 nM): 15.5%
normalised viability (MDA-MB-436; 10 nM): 97.4%
normalised viability (MDA-MB-436; 1000 nM): 64.2%
normalised viability (MDA-MB-436; 10000 nM): 29.6%
normalised viability (MDA-MB-231; 10 nM): 87.5%
normalised viability (MDA-MB-231; 1000 nM): 43.3%
normalised viability (MDA-MB-231; 10000 nM): 5.14%
normalised viability (DU-4475 [9]; 3 nM): 91.2%
normalised viability (DU-4475 [9]; 30 nM): 94.1%
normalised viability (DU-4475 [9]; 100 nM): 43.9%
normalised viability (BT-549; 10 nM): 95.8%
normalised viability (BT-549; 1000 nM): 46.7%
normalised viability (BT-549; 10000 nM): 4.31%
normalised viability (Hs578T; 10 nM): 124%
normalised viability (Hs578T; 1000 nM): 33.9%
normalised viability (Hs578T; 10000 nM): 1.79%
normalised viability (SK-BR-3; 10 nM): 93.9%
normalised viability (SK-BR-3; 1000 nM): 40.3%
normalised viability (SK-BR-3; 10000 nM): 6.9%
normalised viability (CAL-85-1; 3 nM): 89.8%
normalised viability (CAL-85-1; 30 nM): 72.8%
normalised viability (CAL-85-1; 100 nM): 78.6%
normalised viability (MDA-MB-453 [10]; 3 nM): 99.2%
normalised viability (MDA-MB-453 [10]; 30 nM): 60.1%
normalised viability (MDA-MB-453 [10]; 100 nM): 54.7%
normalised viability (BT-474; 10 nM): 111%
normalised viability (BT-474; 1000 nM): 78.8%
normalised viability (BT-474; 10000 nM): 7.58%
normalised viability (HCC1599; 10 nM): 102%
normalised viability (HCC1599; 1000 nM): 72.5%
normalised viability (HCC1599; 10000 nM): 11.9%
normalised viability (HDQ-P1; 3 nM): 113%
normalised viability (HDQ-P1; 30 nM): 97.3%
normalised viability (HDQ-P1; 100 nM): 81.2%
normalised viability (MFM-223; 10 nM): 93.4%
normalised viability (MFM-223; 1000 nM): 57.4%
normalised viability (MFM-223; 10000 nM): 19%
normalised viability (CAL-120 [11]; 10 nM): 84.9%
normalised viability (CAL-120 [11]; 1000 nM): 22.1%
normalised viability (CAL-120 [11]; 10000 nM): 6.61%
normalised viability (MDA-MB-468; 10 nM): 108%
normalised viability (MDA-MB-468; 1000 nM): 43.1%
normalised viability (MDA-MB-468; 10000 nM): 6.32%
normalised viability (CAL-148; 3 nM): 80%
normalised viability (CAL-148; 30 nM): 69%
normalised viability (CAL-148; 100 nM): 31.8%
